Laboratory results: the NIST ThermoML archive (doi:10.1016/j.jct.2014.03.021)

Assay: xn = mol fraction of the nth substance listed
Conditions: 101 kPa, Liquid; for electrical conductivity: Alternating current cell with electrodes; for speed of sound: Frequency=3 MHz, Sing-around technique in a fixed-path interferometer; for mass density: Vibrating tube method

C[C@H](O)C(=O)[O-].C[N+](C)(C)CCO + O
Conditions	electrical conductivity [S/m]	mass density [kg/m3]	speed of sound [m/s]
293.15 K, x1 = 0.0258	3	1036.96	1660.5
293.15 K, x1 = 0.0511	2.99	1063.09	1783.4
293.15 K, x1 = 0.074	2.55	1083.32	1872.8
293.15 K, x1 = 0.1027	1.91	1098.55	1930.6
293.15 K, x1 = 0.1443	–	1111.86	1988.4
293.15 K, x1 = 0.1965	0.806	1122.77	1987.8
293.15 K, x1 = 0.2705	–	1132.07	1989.4
293.15 K, x1 = 0.2957	0.344	1133.96	1985.2
293.15 K, x1 = 0.3897	–	1138.61	1975.3
293.15 K, x1 = 0.5347	0.079	1140.95	1955.9
293.15 K, x1 = 0.6044	0.059	1141.68	1952.1
293.15 K, x1 = 0.6931	0.037	1141.39	1942.5
293.15 K, x1 = 0.7565	–	1141.84	1943.3
293.15 K, x1 = 0.798	0.018	–	–
293.15 K, x1 = 0.8375	–	1142.39	1942.6
293.15 K, x1 = 0.8996	0.01	1142.96	1938.8
293.15 K, x1 = 0.94	–	1143.25	1945.2
293.15 K, x1 = 0.9611	–	1143.37	1944.8
298.15 K, x1 = 0.0258	3.35	1035.09	1665.3
298.15 K, x1 = 0.0511	3.42	1060.72	1781.5
298.15 K, x1 = 0.074	2.85	1080.6	1866
298.15 K, x1 = 0.1027	2.29	1095.58	1920.6
298.15 K, x1 = 0.1443	–	1108.71	1968.2
298.15 K, x1 = 0.1965	1.01	1119.53	1974.6
298.15 K, x1 = 0.2705	–	1128.8	1970.9
298.15 K, x1 = 0.2957	0.405	1130.7	1971.5
298.15 K, x1 = 0.3897	–	1135.35	1957.2
298.15 K, x1 = 0.5347	0.108	1137.68	1941.6
298.15 K, x1 = 0.6044	0.089	1138.43	1937.4
298.15 K, x1 = 0.6931	0.046	1138.13	1927.3
298.15 K, x1 = 0.7565	–	1138.58	1923.3
298.15 K, x1 = 0.798	0.029	–	–
298.15 K, x1 = 0.8375	–	1139.15	1922.5
298.15 K, x1 = 0.8996	0.017	1139.75	1922.9
298.15 K, x1 = 0.94	–	1140.05	1921.7
298.15 K, x1 = 0.9611	–	1140.19	1919.6
303.15 K, x1 = 0.0258	3.68	1033.07	1669
303.15 K, x1 = 0.0511	3.86	1058.28	1779.1
303.15 K, x1 = 0.074	3.23	1077.82	1858.9
303.15 K, x1 = 0.1027	2.57	1092.58	1910.5
303.15 K, x1 = 0.1443	–	1105.56	1954.1
303.15 K, x1 = 0.1965	1.19	1116.28	1961.5
303.15 K, x1 = 0.2705	–	1125.54	1958
303.15 K, x1 = 0.2957	0.497	1127.45	1957.9
303.15 K, x1 = 0.3897	–	1132.15	1944.6
303.15 K, x1 = 0.5347	0.145	1134.46	1927.8
303.15 K, x1 = 0.6044	0.106	1135.19	1923.5
303.15 K, x1 = 0.6931	0.059	1134.84	1912.9
303.15 K, x1 = 0.7565	–	1135.3	1909.5
303.15 K, x1 = 0.798	0.047	–	–
303.15 K, x1 = 0.8375	–	1135.92	1908.6
303.15 K, x1 = 0.8996	0.042	1136.57	1908.1
303.15 K, x1 = 0.94	–	1136.9	1905.4
303.15 K, x1 = 0.9611	–	1137.04	1902.3
308.15 K, x1 = 0.0258	4	1030.91	1671.7
308.15 K, x1 = 0.0511	4.22	1055.74	1776
308.15 K, x1 = 0.074	3.67	1074.99	1851.6
308.15 K, x1 = 0.1027	2.95	1089.55	1900.3
308.15 K, x1 = 0.1443	–	1102.31	1940.6
308.15 K, x1 = 0.1965	1.44	1113.02	1948.6
308.15 K, x1 = 0.2705	–	1122.29	1945.2
308.15 K, x1 = 0.2957	0.622	1124.2	1944.6
308.15 K, x1 = 0.3897	–	1129.04	1932
308.15 K, x1 = 0.5347	0.194	1131.34	1914.3
308.15 K, x1 = 0.6044	0.138	1132.01	1909.9
308.15 K, x1 = 0.6931	0.073	1131.57	1899
308.15 K, x1 = 0.7565	–	1132.02	1896.1
308.15 K, x1 = 0.798	0.053	–	–
308.15 K, x1 = 0.8375	–	1132.67	1895.2
308.15 K, x1 = 0.8996	0.056	1133.39	1894
308.15 K, x1 = 0.94	–	1133.76	1890.3
308.15 K, x1 = 0.9611	–	1133.93	1886.6
313.15 K, x1 = 0.0258	4.38	1028.62	1673.4
313.15 K, x1 = 0.0511	4.67	1053.12	1772.3
313.15 K, x1 = 0.074	4.09	1072.09	1843.8
313.15 K, x1 = 0.1027	3.31	1086.48	1890.1
313.15 K, x1 = 0.1443	–	1099.08	1927.4
313.15 K, x1 = 0.1965	1.65	1109.75	1935.7
313.15 K, x1 = 0.2705	–	1118.95	1932.5
313.15 K, x1 = 0.2957	0.735	1120.95	1931.4
313.15 K, x1 = 0.3897	–	1125.94	1919.3
313.15 K, x1 = 0.5347	0.234	1128.21	1901
313.15 K, x1 = 0.6044	0.169	1128.91	1896.5
313.15 K, x1 = 0.6931	0.103	1128.31	1885.6
313.15 K, x1 = 0.7565	–	1128.77	1883
313.15 K, x1 = 0.798	0.069	–	–
313.15 K, x1 = 0.8375	–	1129.44	1882.1
313.15 K, x1 = 0.8996	0.071	1130.23	1880.5
313.15 K, x1 = 0.94	–	1130.63	1876.1
313.15 K, x1 = 0.9611	–	1130.81	1872
318.15 K, x1 = 0.0258	4.99	1026.22	1674
318.15 K, x1 = 0.0511	5.07	1050.42	1768.1
318.15 K, x1 = 0.074	4.55	1069.15	1835.9
318.15 K, x1 = 0.1027	3.83	1083.38	1879.8
318.15 K, x1 = 0.1443	–	1095.34	1914.8
318.15 K, x1 = 0.1965	1.92	1106.48	1922.8
318.15 K, x1 = 0.2705	–	1115.26	1919.8
318.15 K, x1 = 0.2957	0.898	1117.03	1918.3
318.15 K, x1 = 0.3897	–	1122.53	1906.8
318.15 K, x1 = 0.5347	0.262	1125.08	1888
318.15 K, x1 = 0.6044	0.197	1125.81	1883.5
318.15 K, x1 = 0.6931	0.118	1125	1872.5
318.15 K, x1 = 0.7565	–	1125.55	1870.1
318.15 K, x1 = 0.798	0.103	–	–
318.15 K, x1 = 0.8375	–	1126.28	1869.1
318.15 K, x1 = 0.8996	0.084	1127.07	1867.3
318.15 K, x1 = 0.94	–	1127.56	1862.4
318.15 K, x1 = 0.9611	–	1127.75	1858
323.15 K, x1 = 0.0258	5.23	1023.68	1673.8
323.15 K, x1 = 0.0511	5.47	1047.63	1763.2
323.15 K, x1 = 0.074	5.09	1066.16	1827.6
323.15 K, x1 = 0.1027	4.26	1080.24	1869.2
323.15 K, x1 = 0.1443	–	1092.47	1907
323.15 K, x1 = 0.1965	2.18	1103.2	1910
323.15 K, x1 = 0.2705	–	1112.52	1911.6
323.15 K, x1 = 0.2957	1.01	1114.46	1905.2
323.15 K, x1 = 0.3897	–	1119.8	1898.7
323.15 K, x1 = 0.5347	0.318	1121.95	1875
323.15 K, x1 = 0.6044	0.235	1122.71	1870.6
323.15 K, x1 = 0.6931	0.151	1121.7	1859.6
323.15 K, x1 = 0.7565	–	1122.21	1863
323.15 K, x1 = 0.798	0.134	–	–
323.15 K, x1 = 0.8375	–	1123.02	1861.8
323.15 K, x1 = 0.8996	0.144	1123.98	1854.4
323.15 K, x1 = 0.94	–	1124.48	1854.3
323.15 K, x1 = 0.9611	–	1124.69	1849.7
